According to US9029410B2, “Pharmaceutical compositions for the treatment of movement disorders” (Sarah Herzog Memorial Hospital Ezrath Nashim Association, priority 2003, dated 2015):
Read-outs that look alike come from different tables or passages of the source.

What was measured:
[1] = test system: patients; settings: Tsai and Coyle '875; low baseline levels; cited from earlier work
[2] = test system: MPTP-treated monkeys; settings: cited from earlier work
[3] = test system: schizophrenia patients; test: PANSS, crossover trials of D-cycloserine (pooled); format: in vivo, human; settings: mean ± sd
Method: (§1) Patients fulfilled criteria for treatment resistance used in previous trials of glycine and had been receiving stable doses of olanzapine or risperidone for at least 3 months before study entry. Medication doses remained fixed throughout the study.
(§2) Methods for this study are the same as in example 1, except that D-cycloserine (50 mg/d) was used for treatment. As previously, outcome was assessed using the PANSS, SAS and AIMS. In addition, the Schedule for Assessment of Negative Symptoms (SANS) was used to provide further assessment of negative symptoms. Data are pooled from two previously published studies (Heresco-Levy et al., 1998, 2002). Because analyses were confirmatory, one-tailed statistics were used throughout.

[4] = test system: MPTP-treated monkeys; settings: low dose (320 or 1000 mg/kg as printed); cited from earlier work
[5] = test system: schizophrenia patients; test: AIMS, crossover trials of D-cycloserine (pooled); format: in vivo, human
Method: as §1, §2

[6] = test system: schizophrenia patients; test: SAS, crossover trials of D-cycloserine (pooled); format: in vivo, human
Method: as §1, §2

[7] = test system: schizophrenia patients; test: SAS, crossover trial of D-serine; format: in vivo, human
Text: (§3) The study was approved by the appropriate institutional review boards. Seventeen stable inpatients meeting DSM-IV criteria for schizophrenia and free of other axis I diagnoses or significant medical illness were enrolled in the study. Diagnosis was established on the basis of semistructured psychiatric interviews, review of all available medical records, and confirmation by two board-certified psychiatrists. […] Medication doses remained fixed throughout the study.
(§4) After complete description of the study, written informed consent was obtained from all participating patients. The double-blind, placebo-controlled, crossover study consisted of two random-order 6-week treatment arms (glycine 0.8 g/kg/day, or placebo), separated by a 2-week adjuvant treatment washout. Patients were assessed biweekly with the Positive and Negative Syndrome Scale (PANSS), Brief Psychiatric Rating Scale (BPRS), Simpson-Angus Rating Scale (SAS), and Abnormal Involuntary Movement Scale (AIMS) performed by one trained research psychiatrist, as previously described (3). CBC and SMA-20 measures were assessed biweekly throughout the study. Trough glycine and serine serum levels were assessed at baseline and at the end of the two treatment phases. Data were analyzed by repeated measures ANOVA with within group factor of study phase (glycine/placebo) and time within study phase (pre/post), and between group factor of treatment order.
(§5) Methods: Methods for this study are the same as in example 1, except that D-serine ([…]=approx. 2.1 g/day) was used for treatment. As previously, outcome was assessed using the PANSS, SAS and AIMS. In addition, the Schedule for Assessment of Negative Symptoms (SANS) was used to provide further assessment of negative symptoms. This represents an interim analysis of an ongoing study. Data were analyzed by between-treatment t-test of change scores during D-serine or placebo treatment. Data are analyzed only from subjects (n=23) who completed both study phases.

[8] = test system: schizophrenia patients; test: AIMS, crossover trial of D-serine; format: in vivo, human
Text: as §3, §4, §5

[9] = test system: schizophrenia patients; test: PANSS, crossover trial of D-serine; format: in vivo, human; parameters: PANSS Positive Symptoms, treatment week 6: dose or concentration left out as unconfirmed; settings: mean ± sd
Text: as §3, §4, §5

[10] = test system: schizophrenia patients; test: SANS, crossover trial of D-serine; format: in vivo, human
Text: as §3
as §4, with “The double-blind, placebo-controlled, crossover study consisted of two random-order 6-week treatment arms (glycine 0.8 g/kg/day, or placebo), separated by a 2-week adjuvant treatment washout.” left out, “order. […]” for “order.”

[11] = test system: patients; settings: D-serine combined with clozapine; Tsai et al., 1999; cited from earlier work
[12] = test system: haloperidol-treated Sprague-Dewley rats
Method: In this model, animals are treated chronically with antipsychotics and their vacuous chewing motions are assessed by observation.
Sprague-Dewley rats (Harlan Laboratories, Jerusalem, Israel) weighing 150 to 170 g. were used. The rats were housed in polycarbonate cages (4 in each cage), maintained under a 12 hour-12 hour dark-light (04.00-16.00 hours) cycle, and were allowed water ad libitum. In order to limit neuroleptic-induced weight gain, the food was restricted to 15 g. pellets per animal per day, as used by Andreassen et al (1996). Rats were weighed biweekly throughout the study. Room temperature was maintained at 22±2° C. All procedures were conducted in accordance with local and international laws for the care and use of laboratory animals.
For two weeks prior to the first drug injection, animals were handled daily and habituated to the animal colony and the procedures related to drug administration and video recording situation. Subsequently (week 0), rats underwent a behavior video recording session following which they were randomized to a haloperidol treatment and a control group. The rats in the treatment group received an intramuscular injection in the thigh muscles with haloperidol decanoate (Pericate, Unipharm Ltd., Tel Aviv, Israel), 100 mg/ml in sesame oil, at a dose of 0.35 mg/kg. The control rats were similarly injected with an equal volume of phosphate buffered saline (PBS). Twenty-three G hypodermic needles were used for all injections. […]
Rats underwent a video recorded behavior assessment session 30-150 minutes following the injection. Two weeks after the test day (i.e., post-test day), the video recorded behavior assessment session was repeated in order to investigate longer-term effects of the experimental treatments. […]
A trained observer, unaware of the treatment received by the rats, scored the behavior while watching the videotapes. […] The statistical significance of interaction of the between group factor and the repeated measures factor is determined in the [sequence] software package using the Rao R statistic and the F distribution. […]

[13] = test system: inpatients with treatment-resistant schizophrenia; settings: glycine 0.8 g/kg/day; 2 patients; ceased following discontinuation
Text: Three of the 14 patients who completed the study were women and 11 were men. Their mean age was 46.5 years (SD=9.6), the mean duration of their illness was 25.8 years (SD=11.0) and the mean duration of their current hospitalization was 3.0 years (SD=3.7).

[14] = test system: inpatients with treatment-resistant schizophrenia
Text: as §3, §4

[15] = test system: schizophrenia patients; settings: prior study, Heresco-Levy et al., 1999, Table 3, cited from earlier work
[16] = test system: schizophrenia patients; settings: prior study, Heresco-Levy et al., 1999, Table 3, cited from earlier work; remark: listed apart in the source
[17] = D-cycloserine 50 mg/d, week 6, n=26
[18] = D-cycloserine 50 mg/d, week 6 minus week 0
[19] = D-cycloserine phase, week 0, n=26
[20] = D-cycloserine 50 mg/d, week 6, mean ± sd, n=26
[21] = D-cycloserine 50 mg/d, week 6 minus week 0, mean ± sd
[22] = D-cycloserine phase, week 0, mean ± sd, n=26
[23] = D-serine phase, week 0, mean ± sd, n=23
[24] = D-serine, week 6, mean ± sd, n=23
[25] = D-serine, week 6 minus week 0, mean ± sd
[26] = during D-serine treatment, 6 weeks
[27] = glycine 0.8 g/kg/day vs placebo, 6 weeks
[28] = glycine 0.8 g/kg/day, week 6, mean, n=14
[29] = glycine phase, baseline, mean, n=14
[30] = mean (sd), reduction over 6 weeks of glycine 0.8 g/kg/day
[31] = mean (sd), reduction over 6 weeks of glycine 0.8 g/kg/day, listed as glycine

C[C@@H](N)C(=O)O [D-alanine]
Changes in SAS or AIMS scores [1]: no significant changes

N[C@@H]1CONC1=O [D-cycloserine]
Bradykinesia, tremor or other core Parkinsonian symptoms [2]: did not show improvement
PANSS General Psychopathaology, week 6 within treatment phase [3, 17]: 53.8 ± 8.2
PANSS Negative symptoms, week 6 within treatment phase [3, 17]: 31.4 ± 6.5
PANSS Positive symptoms, week 6 within treatment phase [3, 17]: 24.6 ± 4.1
PANSS Total Symptoms, week 6 within treatment phase [3, 17]: 109.7 ± 15.8
PANSS General Psychopathaology, Ä symptoms [3, 18]: −4.9 ± 6.2
PANSS Negative symptoms, Ä symptoms [3, 18]: −3.2 ± 2.5
PANSS Positive symptoms, Ä symptoms [3, 18]: −2.1 ± 2.6
PANSS Total Symptoms, Ä symptoms [3, 18]: −10.2 ± 8.9
PANSS General Psychopathaology, week 0 within treatment phase [3, 19]: 58.7 ± 8.4
PANSS Negative symptoms, week 0 within treatment phase [3, 19]: 34.6 ± 6.2
PANSS Positive symptoms, week 0 within treatment phase [3, 19]: 26.7 ± 4.5
PANSS Total Symptoms, week 0 within treatment phase [3, 19]: 120 ± 16.7
Variable delayed-response task (VDR) performance [4]: significantly improved
Effect on dyskinetic symptoms (AIMS) ([5]; D-cycloserine 50 mg/d vs placebo, t=2.21, p<0.025, one tailed): significant reduction
AIMS, week 6 within treatment phase [5, 20]: 3.9 ± 3
AIMS, Ä symptoms [5, 21]: −0.8 ± 1.3
AIMS, week 0 within treatment phase [5, 22]: 4.7 ± 3.1
Effect on Parkinsonian symptoms (SAS) ([6]; D-cycloserine 50 mg/d vs placebo, t=1.77, one tailed): nearly significant improvement
SAS, week 6 within treatment phase [6, 20]: 3.6 ± 2.1
SAS, Ä symptoms [6, 21]: −0.7 ± 1.7
SAS, week 0 within treatment phase [6, 22]: 4.3 ± 2.4

N[C@H](CO)C(=O)O [D-serine]
SAS, treatment week 0 [7, 23]: 4.2 ± 1.4
SAS, treatment week 6 [7, 24]: 2.4 ± 0.8
SAS, Δ symptoms [7, 25]: −1.8 ± 1.3
Decline in Parkinsonian symptoms as rated by the SAS [7, 26]: 42%
AIMS, treatment week 0 [8, 23]: 3.0 ± 0.8
AIMS, treatment week 6 [8, 24]: 1.6 ± 1.2
AIMS, Δ symptoms [8, 25]: −1.4 ± 1.1
Decline in dyskinetic symptoms as rated by the AIMS [8, 26]: 50%
PANSS Cognitive symptoms, treatment week 0 ([9]; D-serine phase, week 0, n=23): 8.5 ± 2.2
PANSS Depression, treatment week 0 ([9]; D-serine phase, week 0, n=23): 5.3 ± 2.6
PANSS Excitement, treatment week 0 ([9]; D-serine phase, week 0, n=23): 1.6 ± 1.5
PANSS Negative symptoms, treatment week 0 ([9]; D-serine phase, week 0, n=23): 3.9 ± 4.0
PANSS Positive Symptoms, treatment week 0 ([9]; D-serine phase, week 0, n=23): 4.2 ± 2.3
PANSS Cognitive symptoms, treatment week 6 ([9]; D-serine, week 6, n=23): 17.1 ± 2.7
PANSS Depression, treatment week 6 ([9]; D-serine, week 6, n=23): 13.8 ± 2.2
PANSS Excitement, treatment week 6 ([9]; D-serine, week 6, n=23): 10.9 ± 1.4
PANSS Negative symptoms, treatment week 6 ([9]; D-serine, week 6, n=23): 21.0 ± 3.5
PANSS Positive Symptoms, treatment week 6 ([9]; D-serine, week 6, n=23): 13.0 ± 2.3
PANSS Cognitive symptoms, Δ symptoms ([9]; D-serine, week 6 minus week 0): −1.4 ± 1.3
PANSS Depression, Δ symptoms ([9]; D-serine, week 6 minus week 0): −1.5 ± 1.8
PANSS Excitement, Δ symptoms ([9]; D-serine, week 6 minus week 0): −0.7 ± 1.2
PANSS Negative symptoms, Δ symptoms ([9]; D-serine, week 6 minus week 0): −2.9 ± 1.9
PANSS Positive Symptoms, Δ symptoms ([9]; D-serine, week 6 minus week 0): −1.2 ± 1.1
SANS Total (with globals), treatment week 6 ([10]; week 6, mean ± sd, n=23): 51.9 ± 8.0
SANS Total (with globals), Δ symptoms ([10]; week 6 minus week 0, mean ± sd): −9.0 ± 4.3
Change in SAS or AIMS scores [11]: did not find significant change

NCC(=O)O [Glycine, glycine]
Number of VCM at baseline vs post-test day ([12]; 2 weeks after acute glycine 1.6 g/kg, p<0.07, VCM returned to pre-treatment levels): did not differ significantly
VCM frequency, glycine vs placebo group at test day ([12]; glycine 1.6 g/kg intraperitoneal, acute, p<0.01): significantly lower VCM frequency
Reduction in the number of VCM episodes ([12]; glycine 1.6 g/kg intraperitoneal, test day vs baseline, 30-150 minutes after injection, p<0.001): 82%
Adverse effect leading to withdrawal during glycine administration [13]: mild upper gastrointestinal tract discomfort
AIMS score decrease during glycine treatment ([14]; 6 weeks glycine, vs 0.3 point increase during placebo, p<0.02): 1.0 point
SAS score decrease during glycine treatment ([14]; 6 weeks glycine, vs 0.5 point increase during placebo, p<0.05): 1.3 points
AIMS, Effect size (d) [14, 27]: 0.6
BPRS Total, Effect size (d) [14, 27]: 1.6
PANSS Cognitive Symptoms, Effect size (d) [14, 27]: 0.9
PANSS Depression, Effect size (d) [14, 27]: 0.7
PANSS Excitement, Effect size (d) [14, 27]: 0.6
PANSS Negative Symptoms, Effect size (d) [14, 27]: 2.1
PANSS Positive Symptoms, Effect size (d) [14, 27]: 0.7
SAS, Effect size (d) [14, 27]: 0.6
AIMS, Score at Week 6 [14, 28]: 2.6
BPRS Total, Score at Week 6 [14, 28]: 36.6
PANSS Cognitive Symptoms, Score at Week 6 [14, 28]: 17.9
PANSS Depression, Score at Week 6 [14, 28]: 13.4
PANSS Excitement, Score at Week 6 [14, 28]: 12.0
PANSS Negative Symptoms, Score at Week 6 [14, 28]: 20.4
PANSS Positive Symptoms, Score at Week 6 [14, 28]: 14.0
SAS, Score at Week 6 [14, 28]: 4.0
PANSS Negative Symptoms, Score at Baseline ([14]; glycine phase, baseline, mean, 14 inpatients on olanzapine or risperidone): 24.6
AIMS, Score at Baseline [14, 29]: 3.6
BPRS Total, Score at Baseline [14, 29]: 42.6
PANSS Cognitive Symptoms, Score at Baseline [14, 29]: 19.1
PANSS Depression, Score at Baseline [14, 29]: 14.4
PANSS Excitement, Score at Baseline [14, 29]: 13.2
PANSS Positive Symptoms, Score at Baseline [14, 29]: 15.4
SAS, Score at Baseline [14, 29]: 5.3
AIMS, % Change during glycine [14, 30]: 32.2 (30.4) %
BPRS Total, % Change during glycine [14, 30]: 13.7 (7.5) %
PANSS Cognitive Symptoms, % Change during glycine [14, 30]: 9.2 (6.8) %
PANSS Depression, % Change during glycine [14, 30]: 7.4 (17.1) %
PANSS Excitement, % Change during glycine [14, 30]: 10.6 (20.9) %
PANSS Negative Symptoms, % Change during glycine [14, 30]: 23.3 (8.4) %
PANSS Positive Symptoms, % Change during glycine [14, 30]: 11.4 (11.7) %
SAS, % Change during glycine [14, 30]: 17.9 (40.1) %
AIMS, % Change during glycine [14, 31]: 32.2%
SAS, % Change during glycine [14, 31]: 18%
AIMS score before glycine treatment [15]: 1.9
AIMS score after glycine treatment ([15]; not significant vs placebo): 1.4
SAS score before glycine treatment [16]: 1.3 points
SAS score after glycine treatment ([16]; not significant vs placebo): 0.6 points
